US20180221362A1, “EZH2 INHIBITORS AND MODULATION OF REGULATORY T-CELL FUNCTION” (Constellation Pharmaceuticals, Inc., priority 2015, published 2018)

What was measured:
H3K27me3 = H3K27me3 levels in treated FOXP3+ T-cells; assay type: cell-based, human; settings: FIG. 3B
FOXP3 = FOXP3 expression by flow cytometry during Treg differentiation; assay type: cell-based, human; settings: increasing concentrations, vs DMSO control; FIG. 3A
[1] = test system: CT26 mouse colon carcinoma cells; test: In vitro growth/sensitivity of CT26 carcinoma cells; assay type: cell-based; settings: FIG. 9
From the text: (§1) We first evaluated whether treatment treatment of CT26 cancer cells would be sensitive to EZH2 ihibition. Protocols using CT26 cancer cells as a model for testing immunotherapy protocols and in studies on host immune response are known.
CD8 T cells are known to be major effectors of anti-tumor efficacy in mice and humans. We also explored immune cell changes beyond what our in vitro experiments had predicted, and found several unanticipated observations. First, natural killer (NK) and NKT cells, also major drivers of anti-tumor activity were increased in Inhibitor 1-treated animals, while reduced in the αPD1 group (FIG. 12). This effect was also clear if groups treated with the EZH2 inhibitor were analyzed together, and against groups not treated with the EZH2 inhibitor (FIG. 7). Second, M2 tumor associated macrophages (TAM), known to be immuno-suppressive, reduced in Inhibitor 1-treated animals, while increased in αPD1-treated animals (FIG. 13). This effect was also observed if groups treated with the EZH2 inhibitor were analyzed together, and against groups not treated with the EZH2 inhibitor (FIG. 8). Similar results were also seen with Inhibitor 4. Growth of CT26 mouse colon carcinoma cells was assessed in the presence of increasing amounts of Inhibitor 4 concentrations. […].

human Treg cells = test: Luminex cytokine assays of day 4 iTreg culture supernatants; assay type: cell-based; settings: day 4 supernatants; FIG. 3C
From the text: Luminex cytokine assays. Cytokines were quantified from day 4 cell supernatants using Luminex multiplex assays (HTH17MAG-14K-12, Millipore), as per the manufacturer's protocol.
The transcription factor FOXP3 is known to be an essential regulator of Treg cells, and therefore is important to understand if EZH2 plays any role in its expression.

[2] = test system: CT26 mouse colon carcinoma cells; test: CT26 allograft transplantation tumor model; assay type: in vivo; settings: BALB/c mice, 21-day treatment; Inhibitor 1 200 mg/kg s.c. BID, PD-1 antibody 200 μg/mouse IP every 3-4 days; FIG. 10
Description: (§2) Tumor implantation and dosing. CT26 mouse colon carcinoma cells (ATCC CRL-2638) were expanded in vitro and 1×10^5 cells/mouse were inoculated with 50% Matrigel into the subcutaneous flank region of 6-8 week old female BABL/C mice (Taconic). Mice were randomized once tumors were palpable (>200 mm^3) and dosing was started on the same day. […] Tumors were measured and body weight recorded every 2-3 days.
as §1
CD8 T cells are known to be major effectors of anti-tumor efficacy in mice and humans. We also explored immune cell changes beyond what our in vitro experiments had predicted, and found several unanticipated observations. […] This effect was also clear if groups treated with the EZH2 inhibitor were analyzed together, and against groups not treated with the EZH2 inhibitor (FIG. 7). […] This effect was also observed if groups treated with the EZH2 inhibitor were analyzed together, and against groups not treated with the EZH2 inhibitor (FIG. 8). […] Growth of CT26 mouse colon carcinoma cells was assessed in the presence of increasing amounts of Inhibitor 4 concentrations. […]

[3] = test system: tumor-infiltrating immune cells; test: FACS analysis of tumor-infiltrating immune cells in CT26 tumors; assay type: in vivo, mouse; settings: tumors isolated day 22
Description: as §2
Isolation and analysis of tumor-infiltrating cells. Tumors were chopped into small pieces, digested with 3 mg/mL collagenase A and 100 μg/mL DNase I at 37° C. for 30 mins, followed by the addition of FBS. The digested tumor mass was filtered using […] filters, spun down and washed with PBS Immune cells were visualized and quantifed by FACS on the BD FACSCanto™ II flow cytometry analyzer (BD Bioscience).
The observed efficacy pictured in FIG. 11 was accompanied by changes in the immune infiltrate present in the tumors. Tumors were isolated from mice upon termination of the study (day 22), digested and stained for immune markers allowing for quantification of immune cell populations by FACS. […] Consistent with the reduced efficacy observed in the αPD1 group, we found increased proliferating Treg cells in this group along with decreased proliferating cytotoxic CD8 cells, especially when compared to the combination group (FIG. 11). This effect was also clear if groups treated with the EZH2 inhibitor were analyzed together, and against groups not treated with the EZH2 inhibitor (FIG. 6).

For `CCS(=O)(=O)N1CCC([C@@H](C)n2c(C)c(C(=O)NCc3c(OC)cc(C)[nH]c3=O)c3ccccc32)CC1` [Inhibitor 1], the “H3K27me3 in the same (FOXP3+) cells” value (H3K27me3) was “robustly decreased”, the “FOXP3 expression (frequencies of FOXP3+ cells)” value (FOXP3) was “no impact” and the “CT26 cell sensitivity in vitro” value [1] was “substantially no CT26 cell sensitivity”. The “secretion of IFNγ to the culture medium” value (human Treg cells) was “dose-dependent increase”, the “secretion of IL-10 to the culture medium” value (human Treg cells) was “dose-dependent increase” and the “secretion of IL-13 to the culture medium” value (human Treg cells) was “dose-dependent increase”. For the same molecule, the “tumor growth inhibition efficacy (CT26 tumor volume)” value [2] was “significantly efficacious”, the “NKT cells in tumors” value ([3]; FIG. 12) was “increased” and the “natural killer (NK) cells in tumors” value ([3]; FIG. 12) was “increased”. The “M2 tumor associated macrophages (TAM) in tumors” value ([3]; FIG. 13) was “reduced”.
